SMILES strings stand for the structures.

The nature of this data set: solvent given as SMILES.
[1] abbreviates: in c1ccc2c(c1)c1ccccc1n2-c1ccc(-c2ccc(-n3c4ccccc4c4ccccc43)cc2)cc1.

Take `CCN1CCCc2cc3c(cc21)Oc1cc2c(cc1=N3)C(CS(=O)(=O)[O-])CC(C)(C)[N+]=2CCCC(=O)[O-]` (centres undefined): the fluorescence lifetime (in O) came to 3.6 ns.

Under “in ClC(Cl)Cl”, `F[B-]1(F)OC(c2cccc(Br)c2)=Cc2c3ccccc3cc[n+]21` showed a fluorescence lifetime of 0.173 ns.

Turning to `COc1ccc2nc3c(nc2c1)c(-c1ccccc1)nn3C`, the fluorescence lifetime reads like this: (in C1CCCCC1) 5.37 ns; (in C1CCOC1) 12.4 ns; (in CC#N) 16.7 ns.

On to `CCOC(=O)c1ccc(C2=CC3=c4cc(-c5ccc(C(=O)OCC)cc5)c5nc(C(F)(F)C(F)(F)C(F)(F)F)nc6c(-c7ccc(C(=O)OCC)cc7)cc(c4c65)C4=CC(c5ccc(C(=O)OCC)cc5)=C5N=C(C(F)(F)C(F)(F)C(F)(F)F)N=C2C5C43)cc1` (centres undefined), for which the fluorescence lifetime (in C1CCOC1) turned out to be 2.8 ns.

Turning to `Cc1ccccc1C1=C2C=c3c(oc4ccccc34)=[N+]2[B-](F)(F)n2c1cc1c3ccccc3oc12`, the fluorescence lifetime reads like this: (in C1CCCCC1) 4.21 ns; (in CCOC(C)=O) 4.41 ns; (in CO) 4.44 ns.

With `COc1ccc(C2=Cc3ccc4ccccc4[n+]3[B-](F)(F)O2)cc1`, the fluorescence lifetime (in ClC(Cl)Cl) amounted to 2.3 ns.

In the case of `COc1ccc2cc(/C=C/C3=[O+][B-](F)(F)OC(/C=C/c4ccc5cc(OC)ccc5c4)=C3c3ccccc3)ccc2c1`, where the note is “in ClCCl”, the fluorescence lifetime is 1.86 ns.

For the setting “in c1cc(-c2cccc(-n3c4ccccc4c4ccccc43)c2)cc(-n2c3ccccc3c3ccccc32)c1”, `CC1(C)c2ccccc2N(c2ccc3nc4c5ccc(N6c7ccccc7C(C)(C)c7ccccc76)cc5c5cc(N6c7ccccc7C(C)(C)c7ccccc76)ccc5c4nc3c2)c2ccccc21` registered a fluorescence lifetime of 32 ns.

Consider `COc1ccc(C#Cc2ccccc2C#Cc2ccc(OC)cc2)cc1`, for which the fluorescence lifetime (in CC#N) turned out to be 2.14 ns.

Under “in CCCO”, `CCCCCCn1c2cc(C(=O)OCC)ccc2c2c1c1ccc(C(=O)OCC)cc1n2CCCCCC` came in with a fluorescence lifetime of 6.3 ns.

As to `c1csc(-c2ccc(-c3cccs3)c3nsnc23)c1`, the fluorescence lifetime (in ClC(Cl)Cl) came out at 10.2 ns.

On to `CC1=[N+]2C(=C(c3ccc(C(=C(c4ccccc4)c4ccccc4)c4ccccc4)cc3)c3ccc(C)n3[B-]2(F)F)C=C1`, for which the fluorescence lifetime (in C1CCOC1) worked out at 1.13 ns.

Turning to `O=C1CCCC2=C1CC1=C(CCCC1=O)N2NC(=O)c1ccc(O)cc1`, the fluorescence lifetime was 6.2 ns (in CC#N); 5.6 ns (in CC(C)=O); 6.5 ns (in CCCCCO); 4.8 ns (in CO); 8.2 ns (in ClC(Cl)Cl); 5.4 ns (in ClCCl).

Where the note is “in Cc1ccccc1”, `Cc1cc(C)c(B(c2ccccc2-n2c3ccccc3c3ccccc32)c2c(C)cc(C)cc2C)c(C)c1` had a fluorescence lifetime of 38 ns.

`Cc1cccc(C2=Cc3ccc4ccccc4[n+]3[B-](F)(F)O2)c1` yielded a fluorescence lifetime (in ClC(Cl)Cl) of 1.58 ns.

For the compound `CC(C)(C)c1ccc(N2c3ccc(C(C)(C)C)cc3B3c4cc(C(C)(C)C)ccc4N(c4ccc(C(C)(C)C)cc4)c4cc(-n5c6ccc(C(C)(C)C)cc6c6cc(C(C)(C)C)ccc65)cc2c43)cc1`, the fluorescence lifetime (in Cc1ccccc1) was 6.02 ns.

On to `COC(=O)c1noc(-c2ccccc2)c1Cl`, for which the fluorescence lifetime (in C1CCCCC1) is 0.67 ns.

Turning to `O=C1c2ccc(-c3ccc(N(c4ccc(-c5ccccc5)cc4)c4ccc(-c5ccccc5)cc4)cc3)cc2C(=O)c2ccc(-c3ccc(N(c4ccc(-c5ccccc5)cc4)c4ccc(-c5ccccc5)cc4)cc3)cc21`, the fluorescence lifetime (in Cc1ccccc1) stood at 11.2 ns and the fluorescence lifetime under setting [1] is 10.2 ns.

In the case of `c1ccc(N(c2ccccc2)c2ccc3c4cccc5c(N(c6ccccc6)c6ccccc6)ccc(c6cccc2c63)c54)cc1`, the fluorescence lifetime (in ClCCl) amounted to 4.71 ns.

Regarding `CCOc1cccc(-c2nc3c(c4c2-c2ccccc2CC4)-c2ccccc2CC3)c1O`, the fluorescence lifetime (in ClCCl) was 0.65 ns.

Consider `CN(C)c1ccc(-c2cc3c(s2)c(C(=O)c2ccccc2)cc(=O)n3Cc2ccccc2)cc1`, for which the fluorescence lifetime (in ClCCl) was 1.01 ns.

The compound `c1ccc2c(c1)ncc1ccc3cnc4ccccc4c3c12` returned a fluorescence lifetime (in CC#N) of 6.3 ns.

In the case of `COC(=O)C(NC(=O)OC(C)(C)C)c1ccc2oc(-c3ccc(OC(=O)c4ccccc4)cc3O)nc2c1` (centres undefined), the fluorescence lifetime is, setting by setting: (in CC1CCCCC1) 0.64 ns; (in CC#N) 0.3 ns; (in CO) 0.027 ns.

`F[B-]1(F)n2c(c3ccccc3c2-c2ccccc2)C(c2ccccc2)=C2c3ccccc3C(c3ccccc3)=[N+]21`: the fluorescence lifetime (in ClCCl) is 5.2 ns.

`c1ccc(N2c3ccc4ccccc4c3-c3c4ccccc4cc[n+]3[B-]2(c2ccccc2)c2ccccc2)cc1` displayed a fluorescence lifetime (in Cc1ccccc1) of 6.31 ns.

For the compound `COC(=O)C[C@H](Cc1c[nH]c2ccccc12)NC(=O)[C@H](CC(=O)N[C@@H](CC1=CCc2ccccc21)C(=O)OC)NC(=O)[C@H](Cc1c[nH]c2ccccc12)NC(=O)OC(C)(C)C`, the fluorescence lifetime was determined as 2.67 ns (in CC#N), 2.08 ns (in CCOC(C)=O) and 1.86 ns (in CO).

`N#Cc1ccc(C2=CC3=c4cc(-c5ccc(C#N)cc5)c5nc(C(F)(F)C(F)(F)C(F)(F)F)nc6c(-c7ccc(C#N)cc7)cc(c4c65)C4=CC(c5ccc(C#N)cc5)=C5N=C(C(F)(F)C(F)(F)C(F)(F)F)N=C2C5C43)cc1` (centres undefined) had a fluorescence lifetime (in C1CCOC1) of 2.8 ns.

On to `COc1ccc2c(c1)C(=O)c1ccccc1-2`, for which the fluorescence lifetime reads like this: (in C1CCCCC1) 9.9 ns; (in CC#N) 1.8 ns.

Regarding `CCCCCCOc1ccc(/C=C/c2ccc(N(c3ccc(/C=C/c4ccc(OCCCCCC)cc4)cc3)c3ccc(-c4nc5ccccc5nc4-c4ccc(N(c5ccc(/C=C/c6ccc(OCCCCCC)cc6)cc5)c5ccc(/C=C/c6ccc(OCCCCCC)cc6)cc5)cc4)cc3)cc2)cc1`, the fluorescence lifetime (in C1CCOC1) was 2.05 ns.

The compound `Cc1cc(=O)oc2cc3c4ccc(C(C)(C)C)cc4c4cc(C(C)(C)C)ccc4c3cc12` had a fluorescence lifetime (in ClC(Cl)Cl) of 1.3 ns.

Consider `CCCCCCN1C(=O)C(c2ccc(-n3c4ccccc4c4ccccc43)cc2)=C(c2ccc(-n3c4ccccc4c4ccccc43)cc2)C1=O`, for which the fluorescence lifetime by setting is: (in ClC(Cl)Cl) 5.4 ns; under setting [1], 4 ns.

As to `c1ccc2c(c1)c1ccc3cccc4c3c1c2c1c2cccc3ccc5c6ccccc6c(c5c32)c41`, the fluorescence lifetime (in ClCCl) turned out to be 0.75 ns.

As to `CCN(CC)c1ccc2c(c1)oc(=O)c1cnc3c(cnn3-c3ccccc3)c12`, the fluorescence lifetime (in ClCCl) turned out to be 2.48 ns.

Turning to `CN(CC(O)c1cccc(O)c1)c1ccc([N+](=O)[O-])c(C2CC(c3cccc4ccccc34)=NN2c2ccccc2)c1` (centres undefined), the fluorescence lifetime runs as follows: (in C1CCCCC1) 1.14 ns; (in C1CCOC1) 3.56 ns; (in C1COCCO1) 3.58 ns; (in CC#N) 3.95 ns; (in CC(C)O) 3.42 ns; (in CCOC(C)=O) 4.01 ns. This compound also gave a fluorescence lifetime (in CCOCC) of 2 ns; a fluorescence lifetime (in CO) of 3.01 ns; a fluorescence lifetime (in Cc1ccccc1) of 1.72 ns; a fluorescence lifetime (in ClC(Cl)Cl) of 2.8 ns; a fluorescence lifetime (in O) of 2.42 ns.

Take `COc1c2ccccc2c(OC)c2c1c1ccc(C(F)(F)F)cc1n2C`: the fluorescence lifetime runs as follows: (in C1CCCCC1) 26 ns; (in CC#N) 31.2 ns; (in CO) 28.6 ns; (in ClCCl) 25.8 ns.

On to `COc1ccc2cc(/C=C/c3ccccc3)c(=O)oc2c1`, for which, under “in CC#N”, the fluorescence lifetime is 2.75 ns.

Turning to `Cc1cccc2ccccc12`, the fluorescence lifetime (in C1CCCCC1) worked out at 140 ns.

In turn, `CC(=O)c1nc(-c2ccc(N(C)C)cc2)oc1C` returned a fluorescence lifetime (in CC#N) of 1.91 ns; a fluorescence lifetime (in CCO) of 1.66 ns; a fluorescence lifetime (in CCOC(C)=O) of 1.87 ns; a fluorescence lifetime (in CCOCC) of 1.64 ns; a fluorescence lifetime (in ClCCl) of 3.68 ns.

For `CC1=N/C(=C\c2ccc(C#N)c(N(C)C)c2)C(=O)N1C`, the fluorescence lifetime runs as follows: (in C1CCOC1) 6.8 ns; (in CC#N) 3.5 ns; (in CCCCCC) 16 ns.

The compound `F[B-]1(F)OC(c2ccc(N3CCCC3)cc2)=Cc2cccc[n+]21` had a fluorescence lifetime (in ClC(Cl)Cl) of 2.72 ns.

Compound `Cc1cc(C)c2nc3c(=O)[nH]c(=O)[nH]c3nc2c1` came in with a fluorescence lifetime (in CC#N) of 1.24 ns.

The compound `NC(=O)C1=CN([C@H]2C[C@H](O)[C@@H](COP(=O)([O-])OP(=O)([O-])OC[C@H]3O[C@@H](n4cnc5c(N)ncnc54)C[C@@H]3O)O2)C=CC1` yielded a fluorescence lifetime (in O) of 0.4 ns.

In the case of `CCN(CC)c1ccc2cc(-c3ccc(-c4ccc5ccc6c(-c7ccc(-c8cc9ccc(N(CC)CC)cc9oc8=O)cc7)ccc7ccc4c5c76)cc3)c(=O)oc2c1`, under “in ClC(Cl)Cl”, the fluorescence lifetime was determined as 8.46 ns.

In turn, `CCCCOc1ccc(-c2oc3cc4n(c3c2-c2ccc(OCCCC)cc2)[B-](F)(F)[N+]2=Cc3cc5oc(-c6ccc(OCCCC)cc6)c(-c6ccc(OCCCC)cc6)c5n3[B-](F)(F)[N+]2=C4)cc1` yielded a fluorescence lifetime (in ClCCl) of 1.97 ns.

Under “in ClC(Cl)Cl”, `CCCCCCc1cc(-c2ccc3c(c2)C2CCCC2N3c2ccc3c(c2)C(C)(C)c2ccccc2-3)sc1/C=C1\C(=O)c2ccc(C(=O)O)cc2C1=O` (centres undefined) came in with a fluorescence lifetime of 1.32 ns.

`Cc1cc(C)c(C)c(B(c2c(C)c(C)c(N3c4ccccc4Oc4ccccc43)c(C)c2C)c2c(C)c(C)c(N3c4ccccc4Oc4ccccc43)c(C)c2C)c1C` yielded a fluorescence lifetime (in CC(C)(C)c1ccc(-n2c3ccc([Si](c4ccccc4)(c4ccccc4)c4ccccc4)cc3c3cc([Si](c4ccccc4)(c4ccccc4)c4ccccc4)ccc32)cc1) of 2.9 ns.

In turn, `CC(C)(C)[Si](C)(C)c1ccc([Si](C)(C)C(C)(C)C)c2ccccc12` gave a fluorescence lifetime (in C1CCCCC1) of 12 ns.

`c1ccc2c(c1)[nH]c1c3[nH]c4ccccc4c3c3nsnc3c21`: the fluorescence lifetime is, setting by setting: (in CN(C)C=O) 1.3 ns; (in Cc1ccccc1) 1.02 ns; (in ClCCl) 1.27 ns.

Under “in Cc1ccccc1”, `Cc1ccc2c(c1)c1cc(C)ccc1n2-c1c(-n2c3ccccc3c3ccccc32)c(C#N)c(-n2c3ccccc3c3ccccc32)c(-n2c3ccc(C)cc3c3cc(C)ccc32)c1-n1c2ccccc2c2ccccc21` gave a fluorescence lifetime of 5.9 ns.

Turning to `COc1cnc(-c2cc[n+](C3=C(F)C(F)(F)C(F)(F)[C-]3F)cc2)s1`, the fluorescence lifetime was determined as 2.3 ns (in CC#N); 2.3 ns (in CC(C)=O); 1.04 ns (in CCO); 0.41 ns (in CN(C)C=O); 0.54 ns (in CO); 0.22 ns (in CS(C)=O). Besides, the fluorescence lifetime worked out at 2.85 ns (in ClC(Cl)Cl) and 2.81 ns (in ClCCl).

The values are drawn from the Deep4Chem optical property database.
